Data on ten molecules can be found in EP2647626A1, “1-Aza-spiro[4.5]dec-3-ene and 1,8-diaza-spiro[4.5]dec-3-ene derivatives as pesticides” (Syngenta Participations AG, priority 2012, dated 2013).

Molecules are shown by their SMILES. Read-outs that look alike come from different tables or passages of the source.

Holding throughout (format): in vivo
In data set [1] the test system is Myzus persicae (green peach aphid). The experiment in a line: Activity against Myzus persicae, mixed population, feeding/residual contact activity, preventive (sunflower leaf discs). The note with it: foliar, 144 h, read-out: activity. The procedure:
Example B1: Activity against Myzus persicae (green peach aphid) (mixed population, feeding/residual contact activity, preventive)
Sunflower leaf discs were placed on agar in a 24-well microtiter plate and sprayed with test solutions. After drying, the leaf discs were infested with an aphid population of mixed ages. After an incubation period of 6 days, samples were checked for mortality and special effects (e.g. phytotoxicity).

Data set [2] has the same test system. The experiment in a line: Activity against Myzus persicae, mixed population, systemic/feeding activity, curative (pea seedling roots in test solution). The note with it: 144 h, read-out: activity. The source says:
Example B2: Activity against Myzus persicae (green peach aphid) (mixed population, systemic/feeding activity, curative)
Roots of pea seedlings, infested with an aphid population of mixed ages, were placed directly in the test solutions. 6 days after introduction, samples were checked for mortality and special effects on the plant.

Data set [3] shares this test system. The experiment in a line: Activity against Myzus persicae, mixed population, feeding/residual contact activity on sprayed cabbage plants. The note with it: 144 h, read-out: activity against Myzus persicae. The procedure: (§1) (mixed population, feeding/residual contact activity, plant damage evaluation)
(§2) Cabbage plants infested with a mixed population of Myzus persicae were treated with diluted test solutions of the compounds in a spray chamber. 6 days after treatment, samples were checked for mortality and for plant damage (phytotoxicity), visual assessment being made using a 0-100% rating scale (100% = total damage to plant; 0% = no damage to plant).

The test system of a further data set is cabbage plants. Nature of the data set: Plant damage evaluation (phytotoxicity) on sprayed cabbage plants, visual 0-100% rating scale. The note with it: concentration of 200ppm; 6 days after treatment; 100% = total damage to plant, 0% = no damage to plant. The procedure:
Example B5: Activity against Myzus persicae (green peach aphid)
as §1, §2

In data set [4] the test system is Tetranychus urticae (two-spotted spider mite). The experiment in a line: Activity against Tetranychus urticae, mixed population, feeding/residual contact activity, preventive (bean leaf discs). The note with it: foliar, 192 h, concentration of 400ppm, egg, larval and adult mortality checked 8 days later, bean leaf discs sprayed. The source says: Example B4: Activity against Tetranychus urticae (two-spotted spider mite)
(mixed population, feeding/residual contact activity, preventive)
Bean leaf discs on agar in 24-well microtiter plates were sprayed with test solutions. After drying, the leaf discs were infested with mite populations of mixed ages. 8 days later, discs were checked for egg mortality, larval mortality, and adult mortality.

The mark [5] stands for this setting: concentration of 400ppm, mortality checked after 6 days, sunflower leaf discs sprayed.
[6] abbreviates: concentration of 400ppm, mortality checked 6 days after introduction, roots of pea seedlings in test solution.
The mark [7] stands for this setting: concentration of 200ppm, mortality 6 days after treatment, cabbage plants, spray chamber.

As for `CCOC(=O)OC1=C(c2c(C)cc(Cl)cc2C)C(=O)N(c2ccccc2)C12CCN(OC)CC2` [P1.5], the mortality at 400 ppm in data set [1] (setting [5]) and in data set [2] (setting [6]) was more than 80% each time. For the same molecule, in data set [3], the mortality at 200 ppm was not below 80%. In addition, in the data set with cabbage plants, the “damage to cabbage plants” value is recorded as not above 10%.

Turning to `CCOC(=O)OC1=C(c2cc(C)ccc2C)C(=O)N(c2ccccc2)[C@]12CC[C@@H](OC)CC2` [P1.1, carbonic acid cis-3-(2,5-dimethyl-phenyl)-8-methoxy-2-oxo-1-phenyl-1-aza-spiro[4.5]dec-3-en-4-yl ester ethyl ester], the mortality at 200 ppm in data set [3] (setting [7]) is not below 80%.

For `CO[C@H]1CC[C@@]2(CC1)C(=O)C(c1cc(C)ccc1C)C(=O)N2c1ccccc1` (relative stereo) [P2.1, cis-3-(2,5-dimethyl-phenyl)-8-methoxy-1-phenyl-1-aza-spiro[4.5]decane-2,4-dione], the mortality at 200 ppm in data set [3] (setting [7]) was not below 80%.

For the molecule `CON1CCC2(CC1)C(=O)C(c1c(C)cc(Br)cc1C)C(=O)N2c1ccccc1` (centres unmarked) [P2.3], the mortality at 400 ppm in data set [1] (setting [5]), in data set [2] (setting [6]) and in data set [4] was more than 80% throughout. Besides, in data set [3], the mortality at 200 ppm was not below 80%. The “damage to cabbage plants” value in the data set with cabbage plants is listed as not above 10%.

As for `CON1CCC2(CC1)C(=O)C(c1c(C)cc(C)cc1C)C(=O)N2c1ccccc1` (centres unmarked) [P2.4], the mortality at 400 ppm in data set [1] (setting [5]), in data set [2] (setting [6]) and in data set [4] was more than 80% in each case. Further, the mortality at 200 ppm in data set [3] was not below 80%. The “damage to cabbage plants” value with cabbage plants is not above 10%.

On to `CON1CCC2(CC1)C(=O)C(c1c(C)cc(Cl)cc1C)C(=O)N2c1ccccc1` (centres unmarked) [P2.5, 3-(4-chloro-2,6-dimethyl-phenyl)-8-methoxy-1-phenyl-1,8-diaza-spiro[4.5]decane-2,4-dione], for which the mortality at 400 ppm in data set [1] and in data set [2] was more than 80% throughout. The mortality at 200 ppm in data set [3] was not below 80%. In the data set on cabbage plants, the “damage to cabbage plants” value is given as not above 10%.

Take `CON1CCC2(CC1)C(=O)C(c1cc(C)ccc1C)C(=O)N2c1ccccc1` (centres unmarked) [P2.2]: the mortality at 200 ppm in data set [3] is not below 80%. For the same molecule, the “damage to cabbage plants” value in the data set on cabbage plants is recorded as not above 10%.

Turning to `CCOC(=O)OC1=C(c2c(C)cc(Br)cc2C)C(=O)N(c2ccccc2)C12CCN(OC)CC2` [P1.3], the mortality at 400 ppm in data set [1] (setting [5]), in data set [2] (setting [6]) and in data set [4] was more than 80% in each case. Moreover, the mortality at 200 ppm in data set [3] is not below 80%. Moreover, the “damage to cabbage plants” value in the data set with cabbage plants was not above 10%.

For the molecule `CCOC(=O)OC1=C(c2c(C)cc(C)cc2C)C(=O)N(c2ccccc2)C12CCN(OC)CC2` [P1.4], the mortality at 400 ppm in data set [2] (setting [6]) is more than 80%.

Consider `CCOC(=O)OC1=C(c2cc(C)ccc2C)C(=O)N(c2ccccc2)C12CCN(OC)CC2` [P1.2], for which the mortality at 400 ppm in data set [2] (setting [6]) and in data set [4] was more than 80% each time. Moreover, the mortality at 200 ppm in data set [3] is not below 80%. Further, the “damage to cabbage plants” value in the data set with cabbage plants was not above 10%.
